In the supplement of paper PMC10307832:

Compound: CC(C)(C)c1nc(-c2cccc(NS(=O)(=O)c3c(F)cccc3F)c2F)c(-c2ccnc(N)n2)s1 [Dabrafenib] + Nc1ncn([C@H]2C[C@H](O)[C@@H](CO)O2)c(=O)n1 [Decitabine] (partner 2 µM)
Assay: relative viability (nuclei count vs DMSO), 5 days (fraction); higher = more cells survive
Settings: first compound 0.3 µM
Method in brief: (§1)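 Lung cancer cell lines were pin-tool dosed in 1536-well plates on the day after seeding, with either a lone drug or a fixed anchor-drug dose plus five library-drug doses (not always all listed) in √10 steps. Nuclei were counted on 4× images after 5 days. Relative viability is the ratio of treated-well to vehicle-well nuclei counts, with each value a median of duplicate plates.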

Point of comparison: NCI-H1395, relative viability 0.66. Against it:
- NCI-H2342 — higher, 0.774
- LK-2 — lower, 0.22
- NCI-H358 — lower, 0.152
- SK-MES-1 — lower, 0.338

Compound: NC(=O)c1ccc(N(C(N)=O)c2c(F)cccc2F)nc1-c1ccc(F)cc1F [VX-702] + C[C@@H](Oc1cc(-c2cnn(C3CCNCC3)c2)cnc1N)c1c(Cl)ccc(F)c1Cl [Crizotinib] (partner 1 µM)
Assay: as above
Settings: first compound 0.02 µM
Method in brief: as §1

Point of comparison: NCI-H1651, relative viability 0.79. Against it:
- ABC-1 — higher, 1.34
- CAL-12T — lower, 0.636
- NCI-H1944 — higher, 0.963
- NCI-H2085 — higher, 0.921
- IA-LM — higher, 0.792
- NCI-H2228 — lower, 0.628
- NCI-H441 — lower, 0.715
- EMC-BAC-2 — lower, 0.779
- NCI-H2170 — higher, 1.28
- NCI-H1703 — lower, 0.645
- UMC-11 — lower, 0.578
- NCI-H650 — lower, 0.669
- LCLC-103H — higher, 1.04
- NCI-H596 — higher, 0.914
- HCC-827 — higher, 0.922
- COR-L 105 — lower, 0.653
- NCI-H1299 — higher, 1.07
- NCI-H2126 — higher, 1.04
- A549 — lower, 0.754
- NCI-H647 — higher, 1.14
- LOU-NH91 — lower, 0.711
- HCC-78 — lower, 0.348
- HCC-44 — higher, 0.802
- NCI-H1755 — higher, 0.919
- HOP-62 — higher, 0.946
- PC-14 — higher, 0.874
- NCI-H1650 — higher, 1.19
- ChaGo-K-1 — higher, 1.09
- A-427 — higher, 0.824
- NCI-H1355 — higher, 1.09
- NCI-H1792 — higher, 1
- HCC-15 — higher, 0.873
- Calu-6 — higher, 0.847
- NCI-H1563 — higher, 0.848
- LK-2 — lower, 0.258
- EBC-1 — lower, 0.191
- NCI-H358 — lower, 0.659
- SK-MES-1 — higher, 0.989

Same assay, conditions: first compound 0.2 µM

Point of comparison: HOP-62, relative viability 0.651. Against it:
- CAL-12T — lower, 0.564
- NCI-H1944 — higher, 1.01
- NCI-H2085 — higher, 0.926
- IA-LM — higher, 0.862
- NCI-H2228 — lower, 0.536
- NCI-H441 — higher, 0.707
- EMC-BAC-2 — higher, 0.678
- NCI-H2170 — higher, 1.09
- NCI-H1703 — lower, 0.585
- UMC-11 — lower, 0.596
- LCLC-103H — higher, 0.973
- NCI-H596 — higher, 0.986
- HCC-827 — higher, 0.9
- COR-L 105 — higher, 0.79
- NCI-H1299 — higher, 0.97
- NCI-H2126 — higher, 1.13
- A549 — higher, 0.812
- NCI-H647 — higher, 1
- LOU-NH91 — higher, 0.741
- HCC-78 — lower, 0.327
- HCC-44 — higher, 0.739
- NCI-H1651 — higher, 0.889
- NCI-H1755 — higher, 0.784
- PC-14 — higher, 0.86
- NCI-H1650 — higher, 1.05
- ChaGo-K-1 — higher, 1.1
- A-427 — higher, 0.81
- NCI-H1355 — higher, 1.05
- NCI-H1792 — higher, 0.913
- HCC-15 — higher, 0.834
- Calu-6 — higher, 0.86
- NCI-H1563 — higher, 0.875
- EBC-1 — lower, 0.18
- NCI-H358 — lower, 0.549
- SK-MES-1 — higher, 0.94

Same assay, conditions: first compound 0.6325 µM

Point of comparison: EBC-1, relative viability 0.158. Against it:
- ABC-1 — higher, 1.08
- CAL-12T — higher, 0.756
- NCI-H1944 — higher, 0.985
- NCI-H2085 — higher, 1.03
- IA-LM — higher, 0.722
- NCI-H2228 — higher, 0.394
- NCI-H441 — higher, 0.711
- EMC-BAC-2 — higher, 0.791
- NCI-H2170 — higher, 1.24
- NCI-H1703 — higher, 0.608
- UMC-11 — higher, 0.512
- NCI-H650 — higher, 0.761
- LCLC-103H — higher, 1.13
- NCI-H596 — higher, 1.02
- HCC-827 — higher, 0.869
- COR-L 105 — higher, 0.956
- NCI-H1299 — higher, 0.942
- NCI-H2126 — higher, 1.05
- A549 — higher, 0.739
- NCI-H647 — higher, 1.12
- LOU-NH91 — higher, 0.786
- HCC-78 — higher, 0.321
- HCC-44 — higher, 0.817
- NCI-H1651 — higher, 0.831
- NCI-H1755 — higher, 0.894
- HOP-62 — higher, 0.549
- PC-14 — higher, 0.818
- NCI-H1650 — higher, 1
- ChaGo-K-1 — higher, 1.21
- A-427 — higher, 0.808
- NCI-H1355 — higher, 1.01
- NCI-H1792 — higher, 0.992
- HCC-15 — higher, 0.759
- Calu-6 — higher, 0.764
- NCI-H1563 — higher, 0.83
- LK-2 — higher, 0.223
- NCI-H358 — higher, 0.542
- SK-MES-1 — higher, 0.986

Same assay, conditions: first compound 2 µM

Point of comparison: ChaGo-K-1, relative viability 1.23. Against it:
- ABC-1 — higher, 1.42
- CAL-12T — lower, 0.651
- NCI-H1944 — lower, 0.829
- NCI-H2085 — lower, 0.908
- IA-LM — lower, 1.05
- NCI-H2228 — lower, 0.45
- NCI-H441 — lower, 0.838
- EMC-BAC-2 — lower, 0.698
- NCI-H2170 — higher, 1.4
- NCI-H1703 — lower, 0.78
- UMC-11 — lower, 0.692
- NCI-H650 — lower, 1.04
- LCLC-103H — lower, 1.07
- NCI-H596 — lower, 1.19
- HCC-827 — lower, 0.906
- COR-L 105 — lower, 1.21
- NCI-H1299 — lower, 1.07
- NCI-H2126 — lower, 1.08
- A549 — lower, 1.08
- NCI-H647 — lower, 1.05
- LOU-NH91 — lower, 0.659
- HCC-78 — lower, 0.341
- HCC-44 — lower, 0.971
- NCI-H1651 — lower, 0.935
- NCI-H1755 — lower, 0.972
- HOP-62 — lower, 0.915
- PC-14 — lower, 1.02
- NCI-H1650 — higher, 1.24
- A-427 — lower, 1.01
- NCI-H1355 — lower, 1.04
- NCI-H1792 — lower, 1.17
- HCC-15 — lower, 0.848
- Calu-6 — lower, 0.996
- NCI-H1563 — lower, 0.865
- LK-2 — lower, 0.23
- EBC-1 — lower, 0.201
- NCI-H358 — lower, 0.681
- SK-MES-1 — lower, 1.09
